Consider 26 compounds from patent US20130303509A1, “NAMPT INHIBITORS” (AbbVie Inc., priority 2012, published 2013).

As a reminder, the IC50 is the concentration at which inhibition is half-maximal.

The test system of this test is PC3 cells. Put plainly: NAMPT Cell Proliferation Assay. Format: cell-based. The settings on record: Homo sapiens, PC-3, 120 h, 5 days incubation, cell viability by Cell Titer Glo. The method, boiled down:
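Seeded at 500 cells/well in RPMI with 10% heat-inactivated FBS and left to attach overnight at 37° C, 5% CO2. Compounds were added as 10-fold dilutions […] for 5 days, then viability was read by CellTiter-Glo. IC50s came from sigmoidal fits of percent inhibition.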
For orientation: ATP-based viability assays read luminescence as a measure of living cells.

Regarding `CCC(C)C(=O)N1CCC(c2ccc(NC(=O)C3CN(c4cccnn4)C3)cc2)CC1` (centres unmarked) [Example 319, N-{4-[1-(2-methylbutanoyl)piperidin-4-yl]phenyl}-1-(pyridazin-3-yl)azetidine-3-carboxamide], it took 1.24 nM to reach half-maximal inhibition (IC50). Compound `CC(C)CC(=O)N1CCC(c2ccc(NC(=O)C3CN(c4cccnn4)C3)cc2)CC1` [Example 320, N-{4-[1-(3-methylbutanoyl)piperidin-4-yl]phenyl}-1-(pyridazin-3-yl)azetidine-3-carboxamide] came in with a concentration for half-maximal inhibition (IC50) of 2.37 nM. With `CCCCCC(=O)N1CCC(c2ccc(NC(=O)C3CN(c4cccnn4)C3)cc2)CC1` [Example 321, N-[4-(1-hexanoylpiperidin-4-yl)phenyl]-1-(pyridazin-3-yl)azetidine-3-carboxamide], the IC50 stood at 3.21 nM. `CCCC(C)C(=O)N1CCC(c2ccc(NC(=O)C3CN(c4cccnn4)C3)cc2)CC1` (centres unmarked) [Example 322, N-{4-[1-(2-methylpentanoyl)piperidin-4-yl]phenyl}-1-(pyridazin-3-yl)azetidine-3-carboxamide] yielded an IC50 of 2.14 nM. Regarding `CCC(C)CC(=O)N1CCC(c2ccc(NC(=O)C3CN(c4cccnn4)C3)cc2)CC1` (centres unmarked) [Example 323, N-{4-[1-(3-methylpentanoyl)piperidin-4-yl]phenyl}-1-(pyridazin-3-yl)azetidine-3-carboxamide], 2.81 nM corresponded to half-maximal inhibition (IC50). For `CC(C)CCC(=O)N1CCC(c2ccc(NC(=O)C3CN(c4cccnn4)C3)cc2)CC1` [Example 324, N-{4-[1-(4-methylpentanoyl)piperidin-4-yl]phenyl}-1-(pyridazin-3-yl)azetidine-3-carboxamide] the value was 7.08 nM; for `CCC(C)(C)C(=O)N1CCC(c2ccc(NC(=O)C3CN(c4cccnn4)C3)cc2)CC1` [Example 325, N-{4-[1-(2,2-dimethylbutanoyl)piperidin-4-yl]phenyl}-1-(pyridazin-3-yl)azetidine-3-carboxamide], 1.28 nM; for `CC(C)C(C)C(=O)N1CCC(c2ccc(NC(=O)C3CN(c4cccnn4)C3)cc2)CC1` (centres unmarked) [Example 326, N-{4-[1-(2,3-dimethylbutanoyl)piperidin-4-yl]phenyl}-1-(pyridazin-3-yl)azetidine-3-carboxamide], 5.77 nM. Compound `CC(C)(C)CC(=O)N1CCC(c2ccc(NC(=O)C3CN(c4cccnn4)C3)cc2)CC1` [Example 327, N-{4-[1-(3,3-dimethylbutanoyl)piperidin-4-yl]phenyl}-1-(pyridazin-3-yl)azetidine-3-carboxamide] showed a 50% inhibitory concentration (IC50) of 1.23 nM. `CCC(CC)C(=O)N1CCC(c2ccc(NC(=O)C3CN(c4cccnn4)C3)cc2)CC1` [Example 328, N-{4-[1-(2-ethylbutanoyl)piperidin-4-yl]phenyl}-1-(pyridazin-3-yl)azetidine-3-carboxamide]: the half-inhibitory concentration (IC50) was 1.59 nM. This IC50 and that of the compound before are within 1.5-fold of each other. `CCCCCCC(=O)N1CCC(c2ccc(NC(=O)C3CN(c4cccnn4)C3)cc2)CC1` [Example 329, N-[4-(1-heptanoylpiperidin-4-yl)phenyl]-1-(pyridazin-3-yl)azetidine-3-carboxamide] returned an IC50 of 2.83 nM. For `C=CCC(=O)N1CCC(c2ccc(NC(=O)C3CN(c4cccnn4)C3)cc2)CC1` [Example 330, N-{4-[1-(but-3-enoyl)piperidin-4-yl]phenyl}-1-(pyridazin-3-yl)azetidine-3-carboxamide] the value was 1.38 nM. The compound `C=CCCC(=O)N1CCC(c2ccc(NC(=O)C3CN(c4cccnn4)C3)cc2)CC1` [Example 331, N-{4-[1-(pent-4-enoyl)piperidin-4-yl]phenyl}-1-(pyridazin-3-yl)azetidine-3-carboxamide] yielded an IC50 of 2.09 nM. Then `O=C(Nc1ccc(C2CCN(C(=O)CC(F)(F)F)CC2)cc1)C1CN(c2cccnn2)C1` [Example 332, 1-(pyridazin-3-yl)-N-{4-[1-(3,3,3-trifluoropropanoyl)piperidin-4-yl]phenyl}azetidine-3-carboxamide], with 0.99 nM; and `COCC(=O)N1CCC(c2ccc(NC(=O)C3CN(c4cccnn4)C3)cc2)CC1` [Example 333, N-{4-[1-(methoxyacetyl)piperidin-4-yl]phenyl}-1-(pyridazin-3-yl)azetidine-3-carboxamide], with 5.68 nM; and `CSCC(=O)N1CCC(c2ccc(NC(=O)C3CN(c4cccnn4)C3)cc2)CC1` [Example 334, N-(4-{1-[(methylsulfanyl)acetyl]piperidin-4-yl}phenyl)-1-(pyridazin-3-yl)azetidine-3-carboxamide], with 0.97 nM. Compound `COCCOCC(=O)N1CCC(c2ccc(NC(=O)C3CN(c4cccnn4)C3)cc2)CC1` [Example 335, N-(4-{1-[(2-methoxyethoxy)acetyl]piperidin-4-yl}phenyl)-1-(pyridazin-3-yl)azetidine-3-carboxamide] came in with a 50% inhibitory concentration (IC50) of 6.07 nM.

`O=C(Nc1ccc(C2CCN(C(=O)CC[N+](=O)[O-])CC2)cc1)C1CN(c2cccnn2)C1` [Example 336, N-{4-[1-(3-nitropropanoyl)piperidin-4-yl]phenyl}-1-(pyridazin-3-yl)azetidine-3-carboxamide] showed a half-inhibitory concentration (IC50) of 8.26 nM. As to `CSCCC(=O)N1CCC(c2ccc(NC(=O)C3CN(c4cccnn4)C3)cc2)CC1` [Example 337, N-(4-{1-[3-(methylsulfanyl)propanoyl]piperidin-4-yl}phenyl)-1-(pyridazin-3-yl)azetidine-3-carboxamide], inhibition was half-maximal at 6.94 nM (IC50). This IC50 and that of the compound before are within 1.5-fold of each other. Then `C#CCCC(=O)N1CCC(c2ccc(NC(=O)C3CN(c4cccnn4)C3)cc2)CC1` [Example 338, N-{4-[1-(pent-4-ynoyl)piperidin-4-yl]phenyl}-1-(pyridazin-3-yl)azetidine-3-carboxamide], with 1.11 nM; and `O=C(Nc1ccc(C2CCN(C(=O)C3CCCCC3)CC2)cc1)C1CN(c2cccnn2)C1` [Example 339, N-{4-[1-(cyclohexylcarbonyl)piperidin-4-yl]phenyl}-1-(pyridazin-3-yl)azetidine-3-carboxamide], with 1.83 nM; and `O=C(Nc1ccc(C2CCN(C(=O)CC3CCCCC3)CC2)cc1)C1CN(c2cccnn2)C1` [Example 340, N-{4-[1-(cyclohexylacetyl)piperidin-4-yl]phenyl}-1-(pyridazin-3-yl)azetidine-3-carboxamide], with 2.42 nM.

Compound `Cc1cccc(C(=O)N2CCC(c3ccc(NC(=O)C4CN(c5cccnn5)C4)cc3)CC2)c1` [Example 341, N-{4-[1-(3-methylbenzoyl)piperidin-4-yl]phenyl}-1-(pyridazin-3-yl)azetidine-3-carboxamide] had an IC50 of 1.98 nM.

In the case of `O=C(Nc1ccc(C2CCN(C(=O)c3ccccc3O)CC2)cc1)C1CN(c2cccnn2)C1` [Example 342, N-{4-[1-(2-hydroxybenzoyl)piperidin-4-yl]phenyl}-1-(pyridazin-3-yl)azetidine-3-carboxamide], the 50% inhibitory concentration (IC50) was found to be 2.3 nM. This IC50 and that of the compound before are within 1.5-fold of each other. Compound `O=C(Nc1ccc(C2CCN(C(=O)c3cccc(O)c3)CC2)cc1)C1CN(c2cccnn2)C1` [Example 343, N-{4-[1-(3-hydroxybenzoyl)piperidin-4-yl]phenyl}-1-(pyridazin-3-yl)azetidine-3-carboxamide] registered a half-maximal inhibitory concentration (IC50) of 6.53 nM.

Compound `O=C(Nc1ccc(C2CCN(C(=O)c3ccc(O)cc3)CC2)cc1)C1CN(c2cccnn2)C1` [Example 344, N-{4-[1-(4-hydroxybenzoyl)piperidin-4-yl]phenyl}-1-(pyridazin-3-yl)azetidine-3-carboxamide] came in with a 50% inhibitory concentration (IC50) of 8.9 nM.
